Data taken from publication PMC11547513, “Design, Synthesis and Biological Activity Evaluation of β-Carboline Derivatives Containing Nitrogen Heterocycles” (Molecules, 2024).

Tested on: PC-3 cells
Experiment: Intracellular ROS assay (DCFH-DA, flow cytometry)
Type: cell-based, human
Details: 10 μM, 24 h; negative control MFI 19.8
Experimental: Apoptosis is an important target for antitumor therapy. To explore the antitumor mechanism of compound 8q, cell apoptosis was detected using flow cytometry. […] Moreover, reactive oxygen species (ROS) play a significant role in cell growth, differentiation and apoptosis. Excessive ROS can cause oxidative damage and lead to cell apoptosis. […]
a wound healing assay was performed using the method we previously reported1. In short, PC-3 cells were seeded in a six-well plate at a density of 10 × 105 and incubated at a constant temperature of 37 ℃ and 5% CO2 for 24 h. Then the pipette tip was used to create a uniform wound on the surface of cells. Subsequently, after cleaning twice with PBS, the scratch healing of the 8q treatment group and the positive drug treatment […]
was used to measure and quantify cell migration. […]
PC-3 cells were seeded in a six-well plate at a density of 3 × 105, and cultured at 37 ℃ and 5% CO2 for 24 h before adding 10 μM. […] After completion, the cells were immediately detected on the Flow Cytometry (Solarbio, Beijing, China). […]
at 37 ° C for 20 min. Subsequently, the staining solution was wash off with basic culture medium and detected the fluorescence intensity using the flow cytometer. The data was analyzed and obtained through Flow Jo and Prism 7.04 software. […]
The distribution of cycles was analyzed by Flow Jo and Prism 7.04 software. […]

COc1cc(-c2nc(-c3nnc(SCC(=O)Nc4ccc(CN5CCOCC5)cc4)o3)cc3c2[nH]c2ccccc23)cc(OC)c1OC [Compound 8q, N-(4-(morpholinomethyl)phenyl)-2-((5-(1-(3,4,5-trimethoxyphenyl)-9H-pyrido[3,4-b]indol-3-yl)-1,3,4-oxadiazol-2-yl)thio)acetamide]
ROS mean fluorescence intensity (MFI) value: 138
